{"source": "patent US20160213849A1", "about": "“CONDITIONAL REQUIRED PRIMING” (SANOFI-AVENTIS DEUTSCHLAND GMBH, priority 2013, published 2016)", "format_in_all_cases": "cell-based", "key": {"[1]": {"test_system": "Pseudomonas aeruginosa", "experiment": "preservative efficacy test of inoculated m-cresol test solutions", "set-up": "unit not given beside the values", "conditions": "1.8 mg/ml m-cresol", "experimental": "(§1) In a first experiment, the minimum m-cresol concentration necessary to ensure microbiological integrity was determined.\n(§2) Test solutions with m-cresol concentrations of between 2.7 mg/ml down to 1.5 mg/ml were inoculated with an inoculum of different bacteria and fungi/yeast and stored for 28 days. During the test, the bacteria and fungi/yeast population of the test solutions were repeatedly analyzed."}, "[2]": {"test_system": "Escherichia coli", "experiment": "preservative efficacy test of inoculated m-cresol test solutions", "conditions": "1.8 mg/ml m-cresol", "experimental": "as §1, §2"}, "[3]": {"test_system": "Aspergillus niger", "experiment": "preservative efficacy test of inoculated m-cresol test solutions", "conditions": "1.8 mg/ml m-cresol", "experimental": "as §1, §2"}, "[4]": {"test_system": "Staphilococcus aureus", "experiment": "preservative efficacy test of inoculated m-cresol test solutions", "conditions": "1.8 mg/ml m-cresol", "experimental": "as §1, §2"}, "[5]": {"test_system": "Candida albicans", "experiment": "preservative efficacy test of inoculated m-cresol test solutions", "conditions": "1.8 mg/ml m-cresol", "experimental": "as §1, §2"}, "[6]": {"test_system": "bacteria and fungi/yeast", "experiment": "comparison of test solution results to Ph. Eur. and USP criteria", "experimental": "The Ph. Eur. and USP criteria are given in table 1, wherein the numbers designate the required order of magnitude in CFU (colony forming unit) decrease as a function of time since the time of contamination (T0).\nas §2\nThe analysis presented in table 2 for the 1.8 mg/ml m-cresol test solution was also performed for the test solutions with different m-cresol contents. The results were then compared to the Ph.Eur. and USP criteria to determine, which m-cresol contents are sufficient to fulfil these criteria."}}, "note": "“And” between values parts separate entries of the source, which are not always exact repeats. Equal entries are not always repeated."}
{"smiles": "Cc1cccc(O)c1", "note": "[m-cresol]", "values": [{"measurement": "Pseudomonas aeruginosa content", "setting": "[1]; 6 h", "result": "<10"}, {"measurement": "Pseudomonas aeruginosa content", "setting": "[1]; 24 h", "result": "<10"}, {"measurement": "Pseudomonas aeruginosa content", "setting": "[1]; 7 d", "result": "<10"}, {"measurement": "Pseudomonas aeruginosa content", "setting": "[1]; 14 d", "result": "<10"}, {"measurement": "Pseudomonas aeruginosa content", "setting": "[1]; 28 d", "result": "<10"}, {"measurement": "Pseudomonas aeruginosa content", "setting": "[1]; Start (T0)", "result": 23000}, {"measurement": "Escherichia coli content", "setting": "[2]; 6 h", "result": 55}, {"measurement": "Escherichia coli content", "setting": "[2]; 24 h", "result": "<10"}, {"measurement": "Escherichia coli content", "setting": "[2]; 7 d", "result": "<10"}, {"measurement": "Escherichia coli content", "setting": "[2]; 14 d", "result": "<10"}, {"measurement": "Escherichia coli content", "setting": "[2]; 28 d", "result": "<10"}, {"measurement": "Escherichia coli content", "setting": "[2]; Start (T0)", "result": 190000}, {"measurement": "Aspergillus niger content", "setting": "[3]; 7 d", "result": 15}, {"measurement": "Aspergillus niger content", "setting": "[3]; 14 d", "result": "<10"}, {"measurement": "Aspergillus niger content", "setting": "[3]; 28 d", "result": "<10"}, {"measurement": "Aspergillus niger content", "setting": "[3]; Start (T0)", "result": 250000}, {"measurement": "Staphilococcus aureus content", "setting": "[4]; 6 h", "result": 2200}, {"measurement": "Staphilococcus aureus content", "setting": "[4]; 24 h", "result": "<10"}, {"measurement": "Staphilococcus aureus content", "setting": "[4]; 7 d", "result": "<10"}, {"measurement": "Staphilococcus aureus content", "setting": "[4]; 14 d", "result": "<10"}, {"measurement": "Staphilococcus aureus content", "setting": "[4]; 28 d", "result": "<10"}, {"measurement": "Staphilococcus aureus content", "setting": "[4]; Start (T0)", "result": 170000}, {"measurement": "Candida albicans content", "setting": "[5]; 7 d", "result": 100}, {"measurement": "Candida albicans content", "setting": "[5]; 14 d", "result": 30}, {"measurement": "Candida albicans content", "setting": "[5]; 28 d", "result": "<10"}, {"measurement": "Candida albicans content", "setting": "[5]; Start (T0)", "result": 400000}, {"measurement": "m-cresol content still enough to fulfil both the Ph.Eur. criterion A and the USP criteria", "setting": "[6]; conclusion of first experiment", "result": "2.1 mg/mL and 1.8 mg/mL"}, {"measurement": "m-cresol content down to which the USP criteria are fulfilled", "setting": "[6]; lowest content tested 1.5 mg/ml", "result": 1.5, "unit": "mg/mL"}]}
